Results published in paper PMC9643456, “Matching amino acids membrane preference profile to improve activity of antimicrobial peptides” (Communications Biology, 2022).
Ends that are not written are not given here.

What was measured:
MDR P. aeruginosa = assay: microbe, parasite or virus in culture; settings: for MIC in 0.2% albumin and 0.01% AcOH added CLSI standard condition, MDR P. aeruginosa: CAMHB plus 0.2% bovine serum albumin and 0.01% acetic acid, values marked * in Table 2; for Minimum inhibitory concentrations, MDR P. aeruginosa: CLSI broth microdilution, CAMHB with 50 mg/L Ca2+, 10 mg/L Mg2+, 5 × 10^5 CFU/ml, 18 h 37 °C, no visible turbidity, triplicate, strain CCARM 2180
In short: (§1)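 Broth microdilution per CLSI in cation-adjusted Mueller–Hinton broth with added calcium (50 mg/L) and magnesium (10 mg/L); mid-log bacteria at a final 5 × 10^5 CFU/ml were incubated with peptide for 18 h at 37 °C. MIC was the lowest concentration without visible turbidity, in triplicate.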

MDR A. baumannii = assay: microbe, parasite or virus in culture; settings: for MIC in 0.2% albumin and 0.01% AcOH added CLSI standard condition, MDR A. baumannii: CAMHB plus 0.2% bovine serum albumin and 0.01% acetic acid, values marked * in Table 2; for Minimum inhibitory concentrations, MDR A. baumannii: CLSI broth microdilution, CAMHB with 50 mg/L Ca2+, 10 mg/L Mg2+, 5 × 10^5 CFU/ml, 18 h 37 °C, triplicate, strain ATCC BAA-1605
In short: as §1

MDR S. aureus = assay: microbe, parasite or virus in culture; settings: for MIC in 0.2% albumin and 0.01% AcOH added CLSI standard condition, MDR S. aureus: CAMHB plus 0.2% bovine serum albumin and 0.01% acetic acid, values marked * in Table 2; for Minimum inhibitory concentrations, MDR S. aureus: CLSI broth microdilution, CAMHB with 50 mg/L Ca2+, 10 mg/L Mg2+, 5 × 10^5 CFU/ml, 18 h 37 °C, triplicate, strain KCCM 40510
In short: as §1

MDR E. faecalis = assay: microbe, parasite or virus in culture; settings: for MIC in 0.2% albumin and 0.01% AcOH added CLSI standard condition, MDR E. faecalis: CAMHB plus 0.2% bovine serum albumin and 0.01% acetic acid, values marked * in Table 2; for Minimum inhibitory concentrations, MDR E. faecalis: CLSI broth microdilution, CAMHB with 50 mg/L Ca2+, 10 mg/L Mg2+, 5 × 10^5 CFU/ml, 18 h 37 °C, triplicate, strain ATCC 51575
In short: as §1

[1] = Maximum soluble concentration / turbidity; assay type: physicochemical; settings: for Maximum soluble concentration in PBS: lyophilized peptide reconstructed in PBS at 200-6.25 μM, visible turbidity checked every 12 h for 5 days, at least twice
Protocol: Supplementary Methods Bacteria preparation, Antimicrobial peptides preparation, Minimal-inhibitory-concentration measurements, Hemolysis-activity measurements, Tryptophan fluorescence measurements, Isothermal titration calorimetry measurements, Bacteria membrane ion permeation measurements, Outer-inner membrane permeation, Field-emission scanning electron microscopy and Antimicrobial kinetics were performed as described in Materials and Methods. Liposome (LUV) preparation. Bacterial-membrane-mimic DMPC/DMPG unilamellar vesicles (LUV) and mammalian- membrane-mimic PC/cholesterol vesicles with 100-nm diameters were prepared by extrusion. LiposoFast Liposome Factory Basic unit with stabilizer (Avestin, Ottawa, Canada) was used to extrude liposomes 50 times through a polycarbonate membrane filter (pore diameter, 100 nm; filter diameter, 0.75 inches) (Avestin). […] rac-(1-glycerol)) (sodium salt) (DMPG) (Avanti, Alabama, USA); 1,2-Dimyristoyl-sn-glycero-3-phosphocholine (DMPC) (Avanti); and cholesterol (Sigma, Darmstadt, Germany) were used. For circular dichroism, isothermal titration calorimetry, tryptophan fluorescence, and dynamic light scattering experiments, liposomes were reconstructed and resuspendedwith phosphate-buffered saline (PBS; Welgene Inc, Gyeongsangbuk-do, Korea). For calcein-permeation tests, liposomes were reconstructed with calcein solutions (80 mM, 40 mM, 30 mM, 20 mM, and 10 mM) (Sigma, Darmstadt, Germany), purified with Sephadex-G50 columns (Pharmacia biotech, Stockholm, Sweden), and resuspended with PBS. Maximum-soluble -concentration measurements. […] turbidity with PBS. The lowest concentration of peptide without visible turbidity was determined to be the maximu m soluble concentration. Each experiment was performed at least twice. Circular dichroism (CD) spectrum. DMPC/PG -liposome, PC/cholesterol -liposome, and peptide stock solutions were diluted in PBS. For circular dichroism, PBS with neither liposome nor peptides was also prepared. Liposomes and peptides were mixed to […] Samples were transferred into type J/1 cuvettes (Jasco, Tokyo, Japan). Cuvettes were placed into the J -815 circular -dichroism spectrometer (Jasco, Tokyo, Japan). Measurement parameters were as follows: wavelength, 190 -260 nm; data pitch, 0.2 nm; bandwidth, 1.00 nm; […] Each experiment was performed in triplicate. Data below 197 nm was not analyzed because o f experimental difficulties in obtaining those spectra. Each experiment was performed at least twice. Artificial membrane calcein permeation measurements. Calcein fluorescence was used to measure peptide -induced liposome permeation. Calcein solutions (10 mM, 20 mM, or 60 mM) containing PC/PG liposomes and peptides were diluted in PBS ( ×1, ×2, ×3, ×8). […] Liposome solutions (180 μl) were transferred to wells of black, clear -bottomed 96 -well plates (Costar, New York, USA). Peptide […] Liposome-containing plates and peptide -containing plates were inserted into a Flexstation 3 Multi -Mode Microplate Reader (Molecular Devices, California, USA). Peptide solutions (20 μl) were transferred and mixed with liposome solution automatical ly after 30 sec. […] Measurement parameters were as follows: excitation, 490 nm; emission, 520 nm; temperature, 37 °C. […] was transferred and mixed with the liposome -peptide solu tions automatically after 300 sec to acquire fluorescence at maximum leakage. […] Fluorescence measured between 0 -300 sec after addition of 0 μg/ml peptide was considered the baseline. Each experiment was performed at least twice. Dynamic light scattering (DLS) measurements. Dynamic light scattering was used to measure peptide -induced liposome volume changes. PC/PG -liposome stock solutions and peptides were resuspended in PBS. Liposomes and peptides were mixed to […]

human red blood cells = assay: Hemolytic activity; assay type: cell-based; settings: red cells of human, 18 h
In short: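 Haemolysis was read as A540 of cleared supernatants after 18 h at 37 °C, with 0% and 100% lysis set by peptide-free PBS and 1% Triton X-100 and melittin as positive control. Human RBCs were at 4% final, peptide serially diluted 100–0.78 μM; three replicates.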

Substance	MIC in 0.2% albumin and 0.01% AcOH added CLSI standard condition, MDR P. aeruginosa (MDR P. aeruginosa) [µM]	MIC in 0.2% albumin and 0.01% AcOH added CLSI standard condition, MDR A. baumannii (MDR A. baumannii) [µM]	Minimum inhibitory concentrations, MDR A. baumannii (MDR A. baumannii) [µM]	MIC in 0.2% albumin and 0.01% AcOH added CLSI standard condition, MDR S. aureus (MDR S. aureus) [µM]	MIC in 0.2% albumin and 0.01% AcOH added CLSI standard condition, MDR E. faecalis (MDR E. faecalis) [µM]	Maximum soluble concentration in PBS [1] [µM]	Hemolysis percent, 25 μM (human red blood cells) [%]	Hemolysis percent, 50 μM (human red blood cells) [%]	Hemolysis percent, 100 μM (human red blood cells) [%]	Minimum inhibitory concentrations, MDR P. aeruginosa (MDR P. aeruginosa) [µM]	Minimum inhibitory concentrations, MDR S. aureus (MDR S. aureus) [µM]	Minimum inhibitory concentrations, MDR E. faecalis (MDR E. faecalis) [µM]	solubility ([1]; distilled water) [µM]
RWLRWWIRV-NH2 [HLWCopW29-1]	20	1.25	2.5	10	10	> 200	1.20 ±0.14	1.35 ±0.11	16.39 ±2.19				
WLVWVGRRR-NH2 [Hybrid-1]	> 20	> 20	> 20	> 20	> 20	> 200	0.88 ±0.24	1.09 ±0.32	1.40 ±0.08	> 20	> 20	> 20	
LLLLLWRRR-NH2 [AcWL-2]	> 20	20	> 20	10	10	50	14.39 ±0.70	15.13 ± 2.05	27.97 ±2.79	> 20			
GVWVLFRRR-NH2 [Ptg C-ter 3]	> 20	> 20	> 20	> 20	> 20	100	0.44 ±0.10	0.80 ±0.09	1.32 ±0.09	> 20	> 20	> 20	< 500
WLVWIGRRR-NH2 [Hybrid-2]	> 20	10		> 20	> 20	> 200	0.66 ±0.07	1.21 ±0.01	2.88 ±1.49	> 20	> 20	> 20	
